Experimental data published in patent US6995182B2, “1-sulfonyl pyrrolidine derivatives” (Hoffmann-La Roche Inc., priority 2000, dated 2006).

target: T1, rat mGlu 1a receptor (Rattus norvegicus, UniProt P23385); assay: [Ca2+]i measurements (FLIPR, Fluo-3 AM) on mGlu 1a transfected EBNA cells; assay type: cell-based; conditions: rat mGlu 1a receptor transiently transfected into EBNA cells, agonist activity
T1 construct: expressed in transfected cells; host or cells: EBNA cells (transient transfection)
T1 sequence (P23385 19-1199): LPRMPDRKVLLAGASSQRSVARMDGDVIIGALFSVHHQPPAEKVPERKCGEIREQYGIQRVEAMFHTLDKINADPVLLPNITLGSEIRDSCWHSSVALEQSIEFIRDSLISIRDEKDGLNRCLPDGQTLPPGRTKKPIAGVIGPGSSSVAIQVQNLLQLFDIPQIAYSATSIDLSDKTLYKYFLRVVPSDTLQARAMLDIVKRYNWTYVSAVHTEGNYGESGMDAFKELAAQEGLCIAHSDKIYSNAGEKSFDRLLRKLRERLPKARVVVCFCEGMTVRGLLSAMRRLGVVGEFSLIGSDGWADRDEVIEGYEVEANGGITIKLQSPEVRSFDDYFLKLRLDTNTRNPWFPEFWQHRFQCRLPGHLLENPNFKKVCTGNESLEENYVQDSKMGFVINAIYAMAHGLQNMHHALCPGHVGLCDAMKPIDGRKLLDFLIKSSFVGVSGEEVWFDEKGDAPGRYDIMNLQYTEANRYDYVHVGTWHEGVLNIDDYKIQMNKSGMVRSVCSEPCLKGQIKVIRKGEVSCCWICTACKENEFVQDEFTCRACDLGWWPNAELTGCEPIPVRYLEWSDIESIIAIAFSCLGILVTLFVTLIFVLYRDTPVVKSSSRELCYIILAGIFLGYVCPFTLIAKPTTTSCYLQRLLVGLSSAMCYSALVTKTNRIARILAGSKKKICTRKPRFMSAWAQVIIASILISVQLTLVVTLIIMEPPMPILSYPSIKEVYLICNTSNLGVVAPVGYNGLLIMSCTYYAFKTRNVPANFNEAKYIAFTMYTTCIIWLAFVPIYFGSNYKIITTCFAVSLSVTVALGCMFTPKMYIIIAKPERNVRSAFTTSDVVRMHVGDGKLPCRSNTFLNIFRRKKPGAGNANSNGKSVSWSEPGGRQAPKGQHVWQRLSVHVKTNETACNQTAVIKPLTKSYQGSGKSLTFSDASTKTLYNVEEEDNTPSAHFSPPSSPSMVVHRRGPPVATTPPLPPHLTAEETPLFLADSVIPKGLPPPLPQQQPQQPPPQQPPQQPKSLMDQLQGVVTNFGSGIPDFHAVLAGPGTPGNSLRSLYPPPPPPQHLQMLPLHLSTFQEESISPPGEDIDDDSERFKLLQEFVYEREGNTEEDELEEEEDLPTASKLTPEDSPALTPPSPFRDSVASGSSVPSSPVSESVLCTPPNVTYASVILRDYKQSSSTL
Experimental: The pharmacological activity of the compounds was tested using the following method: cDNA encoding rat mGlu 1a receptor was transiently transfected into EBNA cells using a procedure described by E.-J. Schlaeger and K. Christensen (Transient gene expression in mammalian cells grown in serum-free suspension culture; Cytotechnology, 15: 1–13, 1998). [Ca^2+]i measurements were performed on mGlu 1a transfected EBNA cells after incubation of the cells with Fluo-3 AM (0.5 μM final concentration) for 1 hour at 37° C. followed by 4 washes with assay buffer (DMEM supplemented with Hank's salt and 20 mM HEPES. [Ca^2+]i measurements were done using a fluorometric imaging plate reader (FLIPR, Molecular Devices Corporation, La Jolla, Calif., USA). When compounds were evaluated as antagonists they were tested against 10 μM glutamate as agonist.
The inhibition (antagonists) or activation (agonists) curves were fitted with a four parameter logistic equation giving EC50, IC50, and Hill coefficient using the iterative non linear curve fitting software Origin (Microcal Software Inc., Northampton, Mass., USA).

| SMILES | EC50 [nM] |
| --- | --- |
| Cc1ccc(S(=O)(=O)N2[C@@H](C#N)CC[C@H]2c2ccc(F)cc2)cc1 (racemic) [Example 4, (2RS,5SR)-5-(4-Fluoro-phenyl)-1-(toluene-4-sulfonyl)-pyrrolidine-2-carbonitrile] | 4400 |
| Cc1ccc(S(=O)(=O)N2[C@@H](CCl)CC[C@H]2c2ccc(F)cc2)cc1 (racemic) [Example 5, (2RS,5SR)-2-Chloromethyl-5-(4-fluoro-phenyl)-1-(toluene-4-sulfonyl)-pyrrolidine] | 1400 |
| Cc1ccc(S(=O)(=O)N2[C@@H](CNC(=O)C3CC3)CC[C@H]2c2ccc(F)cc2)cc1 (racemic) [Example 16, (2RS,5SR)-Cyclopropanecarboxylic acid [5-(4-fluoro-phenyl)-1-(toluene-4-sulfonyl)-pyrrolidin-2-yl-methyl]-amide] | 210 |
| Cc1ccc(S(=O)(=O)N2[C@@H](Cc3noc(C)n3)CC[C@H]2c2ccc(F)cc2)cc1 (racemic) [Example 21, (2RS,5SR)-3-[5-(4-Fluoro-phenyl)-1-(toluene-4-sulfonyl)-pyrrolidin-2-yl-methyl]-5-methyl-[1,2,4]oxadiazole] | 630 |
| Cc1ccc(S(=O)(=O)N2[C@@H](Cc3nnn(C)n3)CC[C@H]2c2ccc(F)cc2)cc1 (racemic) [Example 39, (2RS,5SR)-5-[5-(4-Fluoro-phenyl)-1-(toluene-4-sulfonyl)-pyrrolidin-2-yl-methyl]-2-methyl-2H-tetrazole] | 360 |
| Cc1ccc(S(=O)(=O)N2C(CCCO)CC[C@H]2c2ccc(F)cc2)cc1 (stereo in doubt) [Example 64, (2S,5S)-3-[5-(4-Fluoro-phenyl)-1-(toluene-4-sulfonyl)-pyrrolidin-2-yl]-propan-1-ol] | 200 |

More lines, now with the values ahead:

| EC50 [nM] | SMILES |
| --- | --- |
| 160 | Cc1ccc(S(=O)(=O)N2[C@H](CCCNS(C)(=O)=O)CC[C@@H]2c2ccc(F)cc2)cc1 (racemic) [Example 77, (2RS,5RS)-N-{3-[5-(4-Fluoro-phenyl)-1-(toluene-4-sulfonyl)-pyrrolidin-2-yl]-propyl}-methanesulfonamide] |
| 980 | Cc1ccc(S(=O)(=O)N2CCCC2CCCNC(=O)C2CC2)cc1 (racemic) [Example 87, (RS)-Cyclopropanecarboxylic acid {3-[1-(toluene-4-sulfonyl)-pyrrolidin-2-yl]-propyl}-amide] |
| 1470 | Cc1ccc(S(=O)(=O)N2[C@@H](CCn3ncnn3)CC[C@H]2c2ccc(F)cc2)cc1 (racemic) [Example 101, (2RS,5SR)-2-{2-[5-(4-Fluoro-phenyl)-1-(toluene-4-sulfonyl)-pyrrolidin-2-yl]-ethyl}-2H-tetrazole] |
| 1280 | Cc1ccc(S(=O)(=O)N2[C@H](CCCc3nc(C)cc(C)n3)CC[C@@H]2c2ccc(F)cc2)cc1 (racemic) [Example 123, (2RS,5RS)-2-{3-[5-(4-Fluoro-phenyl)-1-(toluene-4-sulfonyl)-pyrrolidin-2-yl]-propyl}-4,6-dimethyl-pyrimidine] |
| 1240 | Cc1ccc(S(=O)(=O)N2[C@@H](c3nnco3)CC[C@H]2c2ccc(F)cc2)cc1 (racemic) [Example 137, (2RS,5SR)-2-[5-(4-Fluoro-phenyl)-1-(toluene-4-sulfonyl)-pyrrolidin-2-yl]-[1,3,4]oxadiazole] |
| 350 | Cc1ccc(S(=O)(=O)N2[C@H](CCCCn3ncnn3)CC[C@@H]2c2ccc(F)cc2)cc1 (racemic) [Example 143, (2RS,5RS)-2-{4-[5-(4-Fluoro-phenyl)-1-(toluene-4-sulfonyl)-pyrrolidin-2-yl]-butyl}-2H-tetrazole] |
| 220 | Cc1ccc(S(=O)(=O)N2[C@@H](CCCn3ccnc3)CC[C@H]2c2ccc(F)cc2)cc1 [Example 116, (2S,5S)-1-{3-[5-(4-Fluoro-phenyl)-1-(toluene-4-sulfonyl)-pyrrolidin-2-yl]-propyl}-1H-imidazole] |

test system: not given; assay: not given; conditions: not given

| SMILES | melting point [°C] |
| --- | --- |
| Cc1ccc(S(=O)(=O)N2[C@@H](C#N)CC[C@H]2c2ccc(F)cc2)cc1 (racemic) [Example 4, (2RS,5SR)-5-(4-Fluoro-phenyl)-1-(toluene-4-sulfonyl)-pyrrolidine-2-carbonitrile] | 128 |
| Cc1ccc(S(=O)(=O)N2[C@@H](CCl)CC[C@H]2c2ccc(F)cc2)cc1 (racemic) [Example 5, (2RS,5SR)-2-Chloromethyl-5-(4-fluoro-phenyl)-1-(toluene-4-sulfonyl)-pyrrolidine] | 130 |
| Cc1ccc(S(=O)(=O)N2[C@@H](CNC(=O)C3CC3)CC[C@H]2c2ccc(F)cc2)cc1 (racemic) [Example 16, (2RS,5SR)-Cyclopropanecarboxylic acid [5-(4-fluoro-phenyl)-1-(toluene-4-sulfonyl)-pyrrolidin-2-yl-methyl]-amide] | 154 |
| Cc1ccc(S(=O)(=O)N2[C@H](CCCCC#N)CC[C@@H]2c2ccc(F)cc2)cc1 (racemic) [Example 51, (2RS,5RS)-5-[5-(4-Fluoro-phenyl)-1-(toluene-4-sulfonyl)-pyrrolidin-2-yl]-pentanenitrile] | 79 |
| Cc1ccc(S(=O)(=O)N2[C@H](CCCCc3nnnn3C)CC[C@@H]2c2ccc(F)cc2)cc1 (racemic) [Example 54, (2RS,5RS)-5-{4-[5-(4-Fluoro-phenyl)-1-(toluene-4-sulfonyl)-pyrrolidin-2-yl]-butyl}-1-methyl-1H-tetrazole] | 120 |
| CC(=O)NCC[C@H]1CC[C@@H](c2ccc(F)cc2)N1S(=O)(=O)c1ccc(Cl)cc1 (racemic) [Example 56, (2RS,5SR)-N-{2-[1-(4-Chloro-benzenesulfonyl)-5-(4-fluoro-phenyl)-pyrrolidin-2-yl]-ethyl}-acetamide] | 103 |
| O=C(NCC[C@H]1CC[C@@H](c2ccc(F)cc2)N1S(=O)(=O)c1ccc(Cl)cc1)C1CC1 (racemic) [Example 57, (2RS,5SR)-Cyclopropanecarboxylic acid {2-[1-(4-chloro-benzenesulfonyl)-5-(4-fluoro-phenyl)-pyrrolidin-2-yl]-ethyl}-amide] | 80 |
| Cc1ccc(S(=O)(=O)N2C(C3=NOC(C)N3)CCC2c2ccc(F)cc2)cc1 (stereo not shown) [Example 28, 3-[5-(4-Fluoro-phenyl)-1-(toluene-4-sulfonyl)-pyrrolidin-2-yl]-5-methyl-4,5-dihydro-[1,2,4]oxadiazole] | 68 |
| Cc1ccc(S(=O)(=O)N2[C@@H](CO)CC[C@H]2c2ccc(F)cc2)cc1 [Example 58, (2R,5S)-[5-(4-Fluoro-phenyl)-1-(toluene-4-sulfonyl)-pyrrolidin-2-yl]-methanol] | 140 |

The remaining lines, values ahead:

| melting point [°C] | SMILES |
| --- | --- |
| 49 | CC(=O)NCCC[C@@H]1CC[C@H](c2ccc(F)cc2)N1S(=O)(=O)c1ccc(Cl)cc1 (racemic) [Example 66, (2RS,5RS)-N-{3-[1-(4-Chloro-benzenesulfonyl)-5-(4-fluoro-phenyl)-pyrrolidin-2-yl]-propyl}-acetamide] |
| 91 | Cc1ccc(S(=O)(=O)N2[C@H](CCCc3nc(C)no3)CC[C@@H]2c2ccc(F)cc2)cc1 (racemic) [Example 71, (2RS,5RS)-5-{3-[5-(4-Fluoro-phenyl)-1-(toluene-4-sulfonyl)-pyrrolidin-2-yl]-propyl}-3-methyl-[1,2,4]oxadiazole] |
| 122 | Cn1nnc(CC[C@H]2CC[C@@H](c3ccc(F)cc3)N2S(=O)(=O)c2ccc(Cl)cc2)n1 (racemic) [Example 73, (2RS,5SR)-5-{2-[1-(4-Chloro-benzenesulfonyl)-5-(4-fluoro-phenyl)-pyrrolidin-2-yl]-ethyl}-2-methyl-2H-tetrazole] |
| 129 | Cc1ccc(S(=O)(=O)N2[C@@H](CCc3nc(C4CC4)no3)CC[C@H]2c2ccc(F)cc2)cc1 (racemic) [Example 75, (2RS,5SR)-3-Cyclopropyl-5-{2-[5-(4-fluoro-phenyl)-1-(toluene-4-sulfonyl)-pyrrolidin-2-yl]-ethyl}-[1,2,4]oxadiazole] |
| 123 | Cc1ccc(S(=O)(=O)N2[C@H](CCCNS(C)(=O)=O)CC[C@@H]2c2ccc(F)cc2)cc1 (racemic) [Example 77, (2RS,5RS)-N-{3-[5-(4-Fluoro-phenyl)-1-(toluene-4-sulfonyl)-pyrrolidin-2-yl]-propyl}-methanesulfonamide] |
| 145 | Cc1ccc(S(=O)(=O)N2[C@@H](CCc3ncnn3C)CC[C@H]2c2ccc(F)cc2)cc1 (racemic) [Example 78, (2RS,5SR)-5-{2-[5-(4-Fluoro-phenyl)-1-(toluene-4-sulfonyl)-pyrrolidin-2-yl]-ethyl}-1-methyl-1H-[1,2,4]triazole] |
| 102 | Cc1ccc(S(=O)(=O)N2[C@@H](Cc3nc(C4CC4)no3)CC[C@H]2c2ccc(F)cc2)cc1 (racemic) [Example 95, (2RS,5SR)-3-Cyclopropyl-5-[5-(4-fluoro-phenyl)-1-(toluene-4-sulfonyl)-pyrrolidin-2-ylmethyl]-[1,2,4]oxadiazole] |
| 103 | Cc1ccc(S(=O)(=O)N2[C@@H](Cc3nc(C)no3)CC[C@H]2c2ccc(F)cc2)cc1 (racemic) [Example 96, (2RS,5SR)-5-[5-(4-Fluoro-phenyl)-1-(toluene-4-sulfonyl)-pyrrolidin-2-ylmethyl]-3-methyl-[1,2,4]oxadiazole] |
| 129 | Cc1ccc(S(=O)(=O)N2[C@@H](CCO)CC[C@H]2c2ccc(F)cc2)cc1 (racemic) [Example 98, (2RS,5SR)-2-[5-(4-Fluoro-phenyl)-1-(toluene-4-sulfonyl)-pyrrolidin-2-yl]-ethanol] |
| 121 | Cc1ccc(S(=O)(=O)N2[C@@H](CCn3cccn3)CC[C@H]2c2ccc(F)cc2)cc1 (racemic) [Example 100, (2RS,5SR)-1-{2-[5-(4-Fluoro-phenyl)-1-(toluene-4-sulfonyl)-pyrrolidin-2-yl]-ethyl}-1H-pyrazole] |
| 138 | Cc1ccc(S(=O)(=O)N2[C@@H](CCc3nnco3)CC[C@H]2c2ccc(F)cc2)cc1 (racemic) [Example 127, (2RS,5SR)-2-{2-[5-(4-Fluoro-phenyl)-1-(toluene-4-sulfonyl)-pyrrolidin-2-yl]-ethyl}-[1,3,4]oxadiazole] |
| 96 | Cc1ccc(S(=O)(=O)N2[C@@H](CCCO)CC[C@H]2c2ccc(F)cc2)cc1 [Example 64, (2S,5S)-3-[5-(4-Fluoro-phenyl)-1-(toluene-4-sulfonyl)-pyrrolidin-2-yl]-propan-1-ol] |
